In US8168656B2, “Indoleacetic acid and indenacetic acid derivatives as therapeutic agents with reduced gastrointestinal toxicity” (Vanderbilt University, priority 2009, dated 2012):

Key:
cultured cancer cells = test: Induction of apoptosis of cultured cancer cells; assay type: cell-based, human
Experimental: RKO, HCT-116 (another human colorectal cancer cell line), and H1299 (a human non-small cell cancer line) cells that had been treated with test compounds for various times were washed twice with ice-cold PBS and lysed in a lysis buffer (BioVision) on ice for 10 minutes, followed by centrifugation at 15,000×g for 10 minutes. Caspase-3 activity, which is a measure if the initiation of apoptotic cell death, was determined in the supernatant by a colorimeric assay kit (BioVision Inc., Palo Alto, Calif., United States of America) using the p-nitroanilide-labeled peptide, DEVD-pNA, as substrate. Caspase-3 activity was monitored by the release of p-nitroanilide from the substrate at 405 nm. The fold increase in caspase-3 activity is shown in FIG. 9, and was calculated by comparing the absorbance of p-nitroanilide from vehicle treated controls and those treated with sulindac sulfide and its analogs. […]

PPARγ = PPARγ reporter assay in transfected HEK293 cells; assay type: cell-based; conditions: transfected cells in culture
Experimental: Human embryonic kidney cells (HEK293 cells) were purchased from American Type Culture Collection (ATCC) and maintained in Dulbecco's modified Eagle's medium (DMEM) with GIBCO™ GLUTAMAX™ (Invitrogen Corp., Carlsbad, Calif., United States of America) and 10% heat-inactivated FBS (Atlas Biological, Fort Collins, Colo., United States of America) or 10% charcoal-stripped FBS (HyClone, Logan, Utah, United States of America) in a 5% CO2 constant humidity 37° C. incubator. 9×10^5 HEK293 cells were plated in DMEM supplemented with 10% charcoal-stripped FBS. 18-24 hours after plating, cells were transfected with a control Renilla luciferase expressing plasmid (0.2 μg pCMV-renilla luciferase from Promega Corp., Madison, Wis., United States of America), 0.4 μg PPARγ-GAL4, and 0.4 μg UAS-tk-luc using a lipid ratio of 8 μL Effectene Transfection Reagent (Qiagen Inc., Valencia, Calif., United States of America) per 1 μg DNA in 3 mL of DMEM+10% charcoal-stripped FBS. Cells remained in the transfection mixture overnight until the transfection media was replaced with DMEM+10% charcoal-stripped serum containing ligands of interest or vehicle (0.1% DMSO) […]

C57/BL6 mice = test: Toxicity in vivo, daily injections; conditions: daily injections of a series of concentrations

Compound | ability to induce apoptosis of cultured cancer cells, compared with parent drug (cultured cancer cells) | ability to activate PPARγ-mediated transcription in transfected cells, compared with parent drug (PPARγ) | less toxic than indomethacin (C57/BL6 mice)
COc1ccc2c(c1)c(CC(=O)O)cn2C(=O)c1ccc(Cl)cc1 [2-Des-methylindomethacin, [1-(4-Chloro-benzoyl)-5-methoxy-1H-indol-3-yl]-acetic acid] | as active or more active than the parent drug | as active or more active than the parent drug | at least 25 fold
CSc1ccc(C=C2C=C(CC(=O)O)c3cc(F)ccc32)cc1 [eindenic acid sulfide, [6-Fluoro-3-(4-methylsulfanyl-benzylidene)-3H-inden-1-yl]-acetic acid] | considerably more active than sulindac sulfide | considerably more active than sulindac sulfide | –
